# Source: patent publication US12257228B2, “Cardioversion methods using budiodarone” (Xyra, LLC, priority 2023, dated 2025)
# Where two headings read alike, the source gives them in different places.
# Experiments:
# [1] = cited from earlier work
# [2] = Trough plasma concentration of budiodarone during b.i.d. dosing cycles and washout; type: in vivo, patients
# Description: (§1) It is noted that budiodarone concentrations used in the examples below include both the free acid and the free base versions of budiodarone.
# (§2) In this example, patients were selected with long episodes of either paroxysmal or persistent AFib. Each of the patients was implanted with a pacemaker which monitored their heart rhythm. Patients were then evaluated for disease progression by monitoring their heart rhythm without budiodarone treatment in order to generate a baseline level of the duration of episodes of AFib. The baseline data was collected over two weeks. Patients were then given incremental doses of budiodarone at 200 mg b.i.d; 400 mg b.i.d.; 600 mg b.i.d.; and 800 mg b.i.d. where each dose was maintained for 2 weeks for a total of 4 treatment periods. A two-week washout period was employed after the completion of the 800 mg b.i.d. treatment period, wherein a washout period is the time after the last treatment to avoid misinterpreting observations about study-related treatments that may have been due to prior therapies. Pacemaker data were downloaded on days 8 and 14 of each two-week cycle and averages for each test period are shown. Blood was collected during each cycle and tested for the concentration of budiodarone.
# [3] = Budiodarone concentrations in plasma over time after different single doses (FIG. 1); type: in vivo, patients
# Description: as §1
# In this example, plasma concentrations of budiodarone were evaluated using different single-dosing amounts of the drug. […] The resulting data was placed on a graph and the data for each concentration provided for both a Cmax for the dose employed as well as a trough value at 6 hours.
# [4] = Impact of food on plasma budiodarone concentration, fasting versus fed (FIG. 2); type: in vivo, patients
# Description: This example evaluates the impact on plasma budiodarone concentrations based on a fasting or fed patient. In this example, patients were either fasting or fed before the administration of budiodarone. After budiodarone administration, blood was collected from the patients, and the plasma concentration of budiodarone was determined. FIG. 2 illustrates that in the same dosing of budiodarone, the uptake of budiodarone increased as evidenced by the Cmax values.
# [5] = system: patients with long episodes of either paroxysmal or persistent AFib; experiment: Duration of AFib episodes under incremental b.i.d. doses of budiodarone (pacemaker monitoring); type: in vivo; settings: for Average Episode duration: baseline 4.8 hrs
# Description: as §2
structure (smiles),measurement,setting,value
"CC[C@H](C)OC(=O)Cc1oc2ccccc2c1C(=O)c1cc(I)c(OCCN(CC)CC)c(I)c1 [budiodarone, (S)-sec-butyl2-(3-(4-(2-(diethylamino)ethoxy)-3,5-diiodobenzoyl)benzofuran-2-yl)acetate]",half-life compared with amiodarone,[1],much shorter half-life than amiodarone
same,effect on QT interval,[1]; while reducing episodes of long-duration AFib,without a significant increase in the QT interval
same,Trough Pk levels ng/ml in plasma,"[2]; 200 mg bid, doses approximately 12 hours apart",2.4 +/ ng/ml
same,Trough Pk levels ng/ml in plasma,"[2]; 400 mg bid, doses approximately 12 hours apart",5.2 +/ ng/ml
same,Trough Pk levels ng/ml in plasma,"[2]; 600 mg bid, doses approximately 12 hours apart",13.1 +/ ng/ml
same,Trough Pk levels ng/ml in plasma,"[2]; 800 mg bid, doses approximately 12 hours apart",19.8 +/ ng/ml
same,washout trough concentration as share of the trough concentration at 800 mg b.i.d.,[2]; 2 weeks post 800 mg b.i.d.,about 1.5%
same,concentration at 12 h,"[2]; human, plasma, 800 mg b.i.d., doses approximately 12 hours apart, read-out: Trough Pk levels ng/ml in plasma",19.8 ng/mL
same,concentration at 2 weeks,"[2]; human, plasma, 800 mg b.i.d., washout, 2 weeks post 800 mg bid, read-out: Trough Pk levels ng/ml in plasma",0.3 ng/mL
same,Trough Pk levels ng/ml in plasma,"[2]; washout, 2 weeks post 800 mg bid",0.3 +/ ng/ml
same,plasma concentration maintained for over 6 hours,[3]; each single dose at or above 400 mg,greater than 13 ng/mL
same,plasma level maintained for at least 6 hours,"[3]; high dosing, bolus such as 1,000 mg",above 13 ng/mL
same,plasma concentration for up to about 6 hours,"[3]; high single dose (about 800 mg to 1200 mg), see FIG. 1",over 40 ng/mL
same,Cmax,"[3]; human, plasma, oral, 1000 mg, bolus such as 1,000 mg, read-out: Cmax concentration in plasma",> 300 ng/mL
same,concentration at 8 h,"[3]; human, plasma, oral, 1000 mg, bolus such as 1,000 mg, read-out: plasma concentration in about 8 hours",< 20 ng/mL
same,Cmax,"[3]; human, plasma, oral, each single dose at or above 400 mg, plasma, read-out: Cmax",> 50 ng/mL
same,Cmax,"[3]; human, plasma, oral, high single dose (about 800 mg to 1200 mg), see FIG. 1, read-out: Cmax",≤ 350 ng/mL
same,concentration at 6 h,"[3]; human, plasma, oral, single dose at 800 mg or 1,000 mg",~50 ng/mL
same,concentration at 8 h,"[3]; human, plasma, oral, single dose at 800 mg or 1,000 mg, read-out: plasma concentration at 8 hours",≥ 15 ng/mL
same,shift in time of Cmax in the fed group versus fasted patients,[4]; fed versus fasted patients,about an hour later
same,"uptake of budiodarone as evidenced by the Cmax values, fed versus fasting","[4]; same dosing of budiodarone, fed versus fasting patients",increased
same,"effective plasma level within 60 min, maintained for up to 6 hours","[4]; single oral dose of 400-1,000 mg, whether or not taken with food",> 50 ng/mL
same,Average Episode duration,"[5]; 200 mg bid for 2 weeks, average of pacemaker downloads on days 8 and 14",1.7 h
same,Average Episode duration,[5]; 400 mg bid for 2 weeks,0.6 h
same,longest average duration of AFib,[5]; 600 mg b.i.d.,6 min
same,Average Episode duration,[5]; 600 mg bid for 2 weeks,0.1 h
same,Average Episode duration,[5]; 800 mg bid for 2 weeks,0.5 h
same,maximum duration AFib levels,[5]; all dosing levels from 400 mg b.i.d. to 800 mg b.i.d.,less than 45 minutes
same,Average Episode duration,[5]; two-week washout after 800 mg bid,2.4
